# Source: patent US5571842A, “Perfluoroalkyl-substituted, benzoylguanidines, a process for their preparation, their use as a medicament or diagnostic agent, and a medicament containing them” (priority 1994, dated 1996)
# Tests used:
# Na^+ /H^+ exchanger = biological target: T1, Na^+ /H^+ exchanger (Oryctolagus cuniculus, UniProt P23791); test: Inhibition of the Na+/H+ exchanger of rabbit erythrocytes (amiloride-sensitive sodium influx, flame photometry); format: cell-based, rabbit (White New Zealand); details: 37° C., pH 7.4, hyperosmolar salt-sucrose medium
# T1 construct: endogenous in cells; host or cells: rabbit erythrocytes (whole blood of cholesterol-fed White New Zealand rabbits)
# T1 sequence (P23791 whole entry): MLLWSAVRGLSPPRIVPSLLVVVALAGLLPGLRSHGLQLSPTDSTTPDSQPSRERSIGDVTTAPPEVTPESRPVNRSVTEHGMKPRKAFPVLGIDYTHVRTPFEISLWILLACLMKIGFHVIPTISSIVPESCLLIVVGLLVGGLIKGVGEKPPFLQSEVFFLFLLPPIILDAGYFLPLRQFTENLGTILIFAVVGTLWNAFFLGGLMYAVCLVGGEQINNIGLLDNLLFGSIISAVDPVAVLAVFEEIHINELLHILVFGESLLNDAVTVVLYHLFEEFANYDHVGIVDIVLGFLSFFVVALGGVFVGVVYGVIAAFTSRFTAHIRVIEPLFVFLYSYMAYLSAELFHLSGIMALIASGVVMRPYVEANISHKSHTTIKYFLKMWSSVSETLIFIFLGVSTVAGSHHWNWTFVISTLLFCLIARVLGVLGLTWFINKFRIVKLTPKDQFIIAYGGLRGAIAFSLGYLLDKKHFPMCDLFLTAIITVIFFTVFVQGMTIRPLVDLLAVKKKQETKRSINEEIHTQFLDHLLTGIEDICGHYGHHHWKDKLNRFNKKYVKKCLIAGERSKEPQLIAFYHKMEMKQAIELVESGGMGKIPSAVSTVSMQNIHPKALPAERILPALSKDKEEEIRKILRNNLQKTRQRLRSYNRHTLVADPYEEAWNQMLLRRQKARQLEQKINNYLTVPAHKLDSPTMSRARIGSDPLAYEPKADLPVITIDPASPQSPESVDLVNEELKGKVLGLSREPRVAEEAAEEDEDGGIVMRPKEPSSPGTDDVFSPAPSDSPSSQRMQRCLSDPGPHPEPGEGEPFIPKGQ
# Source text: White New Zealand rabbits (Ivanovas) received a standard diet containing 2% cholesterol for six weeks, in order to activate Na^+ /H^+ exchange and thus to enable the Na^+ influx into the erythrocytes via […] exchange to be determined by flame photometry. The blood was taken from the auricular arteries and made incoagulable by means of 25 IU of potassium heparin. A portion of each sample was used for duplicate determination of the hematocrit by centrifugation. Aliquots of in each case 100 μl were used to measure the initial Na^+ content of the erythrocytes.
# In order to determine the amiloride-sensitive sodium influx, 100 μl of each blood sample were incubated at 37° C. and at pH 7.4 in each case in 5 ml of a hyperosmolar salt-sucrose medium (in mmol/l: 140 NaCl, 3 KCl, 150 sucrose, 0.1 ouabain, 20 trishydroxymethylaminomethane). The erythrocytes were then washed three times with ice-cold MgCl2 -ouabain solution (in mmol/l: 112 MgCl2, 0.1 ouabain) and hemolyzed in 2.0 ml of distilled water. The intracellular sodium content was determined by flame photometry.
# The net Na^+ influx was calculated from the difference between the initial sodium values and the sodium content of the erythrocytes after incubation. The amiloride-inhibitable sodium influx was given by the difference of the sodium content of the erythrocytes after incubation with and without 3×10^-4 mol/l of amiloride. […]
# rat hearts = details: isolated rat hearts, cited from earlier work
# cardiac arrhythmias = details: cited from earlier work
structure (smiles),measurement,setting,value
"NC(N)=NC(=O)c1ccc(Oc2ccc(F)cc2)c(S(=O)(=O)C(F)(F)F)c1 [Example 1, 4-(4-Fluorophenoxy)-3-trifluoromethylsulfonylbenzoylguanidine]",IC50,Na^+ /H^+ exchanger,200 nM
"CC(C)c1ccc(C(=O)N=C(N)N)cc1S(=O)(=O)C(F)(F)F [Example 2, 4-Isopropyl-3-trifluoromethylsulfonylbenzoylguanidine]",IC50,Na^+ /H^+ exchanger,70 nM
NC(N)=NC(=O)c1nc(Cl)c(N)nc1N [amiloride],suppression of artificially induced ventricular fibrillation,rat hearts; Eur. Heart J. 9 (suppl.1): 167 (1988),completely suppressed
same,antiarrhythmic effect,"cardiac arrhythmias; Circulation 79, 1257-63 (1989)",only weakly pronounced
same,side-effects accompanying antiarrhythmic effect,cardiac arrhythmias; in vivo,hypotensive and saluretic effects
CCN(c1nc(N)c(C(=O)N=C(N)N)nc1Cl)C(C)C [ethylisopropylamiloride],potency relative to amiloride in ventricular fibrillation model,rat hearts; compared with amiloride,even more potent than amiloride
